Literature values in patent publication US20070092561A1, “Water-Soluble Aspirin Composition” (priority 2005, published 2007).
Where two headings read alike, the source gives them in different places.

Structure (SMILES): CC(=O)Oc1ccccc1C(=O)O [aspirin]
- occurrence of side-effects (gastric irritation, inflammation, heartburn, nausea, pain) (aspirin users): 2-10%
- occurrence of side-effects (gastric irritation, inflammation, heartburn, nausea, pain) (in chronic arthritis): about 25%
